Measured values: patent US6372236B1, “Cream composition for skin care” (Doosan Corporation, priority 2000, dated 2002)

Tested on: acne
Experiment: Test on patients suffering from acne
Format: in vivo, human

## CCCCCCCCCCCCCC[C@@H](O)[C@@H](O)[C@@H](N)CO [phytosphingosine]
  therapeutic efficacy: good therapeutic efficacy
